Source: US12310975B2, “Modulators of BCL6 proteolysis and associated methods of use” (Arvinas Operations, Inc., priority 2019, dated 2025)

What follows are compounds tested against BCL6 (Homo sapiens (Human), UniProt P41182) (assay: Immunofluorescence high content imaging of BCL6 degradation in T47D cells). Details: class symbols A-D, read-out: EC50 (nM)*.
Type: cell-based
Method in brief: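 T47D cells were treated 3 days at 37 °C with an 11-point 3-fold dilution series (top 0.1 or 1 μM), then fixed, permeabilized and immunostained for BCL6 with Alexa-488 secondary, CellMask and Hoechst. BCL6 signal was imaged at 10×, 4 fields/well, with top-hat smoothing.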
In the case of `CNC(=O)COc1cc2cc(Nc3nc(N4CCC(OCc5cccc(COCCOCCOCCOc6ccc7c(c6)CN(C6CCC(=O)NC6=O)C7=O)c5)CC4)ncc3Cl)ccc2n(C)c1=O` (stereo not shown) [compound 97, 2-((6-((5-chloro-2-(4-((3-((2-(2-(2-((2-(2,6-dioxopiperidin-3-yl)-1-oxoisoindolin-5-yl)oxy)ethoxy)ethoxy)ethoxy)methyl)benzyl)oxy)piperidin-1-yl)pyrimidin-4-yl)amino)-1-methyl-2-oxo-1,2-dihydroquinolin-3-yl)oxy)-N-methylacetamide], the DC50 is reported as 50 to 100 nM. Compound `CC(=O)COc1cc2cc(Nc3nc(N4CCC(OCCOCCOCCOCCOCCOc5ccc6c(c5)CN(C5CCC(=O)NC5=O)C6=O)CC4)ncc3Cl)ccc2n(C)c1=O` (stereo not shown) [compound 98, 3-(5-((14-((1-(5-chloro-4-((1-methyl-2-oxo-3-(2-oxopropoxy)-1,2-dihydroquinolin-6-yl)amino)pyrimidin-2-yl)piperidin-4-yl)oxy)-3,6,9,12-tetraoxatetradecyl)oxy)-1-oxoisoindolin-2-yl)piperidine-2,6-dione] has a DC50 of 10 to 50 nM. With `CN(C)C(=O)COc1cc2cc(Nc3nc(N4CCC(OCCOCCOCCOCCOCCOc5ccc6c(c5)CN(C5CCC(=O)NC5=O)C6=O)CC4)ncc3Cl)ccc2n(C)c1=O` (stereo not shown) [compound 99, 2-((6-((5-chloro-2-(4-((14-((2-(2,6-dioxopiperidin-3-yl)-1-oxoisoindolin-5-yl)oxy)-3,6,9,12-tetraoxatetradecyl)oxy)piperidin-1-yl)pyrimidin-4-yl)amino)-1-methyl-2-oxo-1,2-dihydroquinolin-3-yl)oxy)-N,N-dimethylacetamide] the DC50 was greater than 100 nM. `CNC(=O)COc1cc2cc(Nc3nc(N4CCC(OCCOCCOCCOc5cccc(CCOc6ccc7c(c6)CN(C6CCC(=O)NC6=O)C7=O)c5)CC4)ncc3Cl)ccc2n(C)c1=O` (stereo not shown) [compound 100, 2-((6-((5-chloro-2-(4-(2-(2-(2-(3-(2-((2-(2,6-dioxopiperidin-3-yl)-1-oxoisoindolin-5-yl)oxy)ethyl)phenoxy)ethoxy)ethoxy)ethoxy)piperidin-1-yl)pyrimidin-4-yl)amino)-1-methyl-2-oxo-1,2-dihydroquinolin-3-yl)oxy)-N-methylacetamide] was tested, and the DC50 was greater than 100 nM. In the case of `CNC(=O)COc1cc2cc(Nc3nc(N4CCC(N(C)[C@H]5CC[C@H](CN6CCN(c7ccc8c(c7)CN(C7CCC(=O)NC7=O)C8=O)CC6)CC5)CC4)ncc3Cl)ccc2n(C)c1=O` (stereo partly shown) [compound 101, 2-((6-((5-chloro-2-(4-(((1r,4r)-4-((4-(2-(2,6-dioxopiperidin-3-yl)-1-oxoisoindolin-5-yl)piperazin-1-yl)methyl)cyclohexyl) (methyl)amino)piperidin-1-yl)pyrimidin-4-yl)amino)-1-methyl-2-oxo-1,2-dihydroquinolin-3-yl)oxy)-N-methylacetamide], the DC50 is reported as less than 10 nM. For `CNC(=O)COc1cc2cc(Nc3nc(N4CCC(N(C)[C@H]5CC[C@@H](CN6CCN(c7ccc8c(c7)CN(C7CCC(=O)NC7=O)C8=O)CC6)CC5)CC4)ncc3Cl)ccc2n(C)c1=O` (stereo partly shown) [compound 102, 2-((6-((5-chloro-2-(4-(((1s,4s)-4-((4-(2-(2,6-dioxopiperidin-3-yl)-1-oxoisoindolin-5-yl)piperazin-1-yl)methyl)cyclohexyl) (methyl)amino)piperidin-1-yl)pyrimidin-4-yl)amino)-1-methyl-2-oxo-1,2-dihydroquinolin-3-yl)oxy)-N-methylacetamide], the DC50 was less than 10 nM. With `CNC(=O)COc1cc2cc(Nc3nc(N4CCN(CCCN5CCN(c6ccc7c(c6)CN(C6CCC(=O)NC6=O)C7=O)CC5)CC4)ncc3Cl)ccc2n(C)c1=O` (stereo not shown) [compound 103, 2-((6-((5-chloro-2-(4-(3-(4-(2-(2,6-dioxopiperidin-3-yl)-1-oxoisoindolin-5-yl)piperazin-1-yl)propyl)piperazin-1-yl)pyrimidin-4-yl)amino)-1-methyl-2-oxo-1,2-dihydroquinolin-3-yl)oxy)-N-methylacetamide] the DC50 was 10 to 50 nM. In the case of `CN1C(=O)CCc2cc(Nc3cc(N4CCC(OCCOCCOCCOCCOCCOc5ccc6c(c5)CN(C5CCC(=O)NC5=O)C6=O)CC4)c([N+](=O)[O-])cc3Cl)ccc21` (stereo not shown) [compound 105, 3-(5-((14-((1-(4-chloro-5-((1-methyl-2-oxo-1,2,3,4-tetrahydroquinolin-6-yl)amino)-2-nitrophenyl)piperidin-4-yl)oxy)-3,6,9,12-tetraoxatetradecyl)oxy)-1-oxoisoindolin-2-yl)piperidine-2,6-dione], the DC50 is reported as greater than 100 nM. Compound `CNC(=O)COc1cc2cc(Nc3nc(N4CCC(c5cn(CCOc6ccc7c(c6)C(=O)N(C6CCC(=O)NC6=O)C7=O)nn5)CC4)ncc3Cl)ccc2n(C)c1=O` (stereo not shown) [compound 106, 2-((6-((5-chloro-2-(4-(1-(2-((2-(2,6-dioxopiperidin-3-yl)-1,3-dioxoisoindolin-5-yl)oxy)ethyl)-1H-1,2,3-triazol-4-yl)piperidin-1-yl)pyrimidin-4-yl)amino)-1-methyl-2-oxo-1,2-dihydroquinolin-3-yl)oxy)-N-methylacetamide] has a DC50 of 10 to 50 nM. `CNC(=O)COc1cc2cc(Nc3nc(N4CCC(c5cn(CCOCCOc6ccc7c(c6)C(=O)N(C6CCC(=O)NC6=O)C7=O)nn5)CC4)ncc3Cl)ccc2n(C)c1=O` (stereo not shown) [compound 107, 2-((6-((5-chloro-2-(4-(1-(2-(2-((2-(2,6-dioxopiperidin-3-yl)-1,3-dioxoisoindolin-5-yl)oxy)ethoxy)ethyl)-1H-1,2,3-triazol-4-yl)piperidin-1-yl)pyrimidin-4-yl)amino)-1-methyl-2-oxo-1,2-dihydroquinolin-3-yl)oxy)-N-methylacetamide] gave a DC50 of 10 to 50 nM. Compound `CNC(=O)COc1cc2cc(Nc3nc(N4CCC(c5cn(CCOCCOCCOCCOCC(=O)N[C@H](C(=O)N6C[C@H](O)C[C@H]6C(=O)N[C@@H](C)c6ccc(-c7scnc7C)cc6)C(C)(C)C)nn5)CC4)ncc3Cl)ccc2n(C)c1=O` [compound 108, (2S,4R)-1-((S)-2-(tert-butyl)-17-(4-(1-(5-chloro-4-((1-methyl-3-(2-(methylamino)-2-oxoethoxy)-2-oxo-1,2-dihydroquinolin-6-yl)amino)pyrimidin-2-yl)piperidin-4-yl)-1H-1,2,3-triazol-1-yl)-4-oxo-6,9,12,15-tetraoxa-3-azaheptadecanoyl)-4-hydroxy-N-((S)-1-(4-(4-methylthiazol-5-yl)phenyl)ethyl)pyrrolidine-2-carboxamide] has a DC50 of 50 to 100 nM. In the case of `CNC(=O)COc1cc2cc(Nc3nc(N4CCC(OCCOCCOCCOCCOc5cccc(-c6ccc7c(c6)CN(C6CCC(=O)NC6=O)C7=O)c5)CC4)ncc3Cl)ccc2n(C)c1=O` (stereo not shown) [compound 109, 2-((6-((5-chloro-2-(4-(2-(2-(2-(2-(3-(2-(2,6-dioxopiperidin-3-yl)-1-oxoisoindolin-5-yl)phenoxy)ethoxy)ethoxy)ethoxy)ethoxy)piperidin-1-yl)pyrimidin-4-yl)amino)-1-methyl-2-oxo-1,2-dihydroquinolin-3-yl)oxy)-N-methylacetamide], the DC50 is reported as greater than 100 nM. `CNC(=O)COc1cc2cc(Nc3nc(N4CCC(OCCOCCOCCOc5ccccc5OCCOc5ccc6c(c5)CN(C5CCC(=O)NC5=O)C6=O)CC4)ncc3Cl)ccc2n(C)c1=O` (stereo not shown) [compound 110, 2-((6-((5-chloro-2-(4-(2-(2-(2-(2-(2-((2-(2,6-dioxopiperidin-3-yl)-1-oxoisoindolin-5-yl)oxy)ethoxy)phenoxy)ethoxy)ethoxy)ethoxy)piperidin-1-yl)pyrimidin-4-yl)amino)-1-methyl-2-oxo-1,2-dihydroquinolin-3-yl)oxy)-N-methylacetamide] showed a DC50 greater than 100 nM.
